Each structure is given as a SMILES string. pIC50: −log10 of the molar value. Values joined by “and” are separate entries in the source; they are usually repeats but may differ in a detail not shown here. Identical values can stand only once.

The assay concerns K24384-001-R-PDC complex spheroid growth. Nature of the assay: Anticancer human tumor K24384-001-R-PDC patient-derived pancreatic adenocarcinoma cell line growth inhibition [AhR]. The following applies: for viability, T/C: stronger effect = lower value. The procedure, abridged: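 Agents were dosed in half-log steps down from roughly clinical Cmax, or from 10 microM where Cmax was unknown, alone and with AhR antagonists. Read-out: percent test/control growth of tumor spheroids containing HUVEC and MSC stromal cells.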

[1] abbreviates: curve of first compound, second compound 0.1 µM.
[2] abbreviates: curve of first compound, second compound 0.316 µM.
Where [3] appears, read: curve of first compound, second compound 1 µM.
Setting [4] is: curve of first compound, second compound 3.16 µM.
The mark [5] stands for this setting: curve of first compound, second compound 10 µM.
Setting [6] is: second compound 0.1 µM, first compound 0.00949 µM.
Where [7] appears, read: second compound 0.1 µM, first compound 0.03 µM.
The mark [8] stands for this setting: second compound 0.1 µM, first compound 0.0949 µM.
[9] abbreviates: second compound 0.1 µM, first compound 0.3 µM.
The mark [10] stands for this setting: second compound 0.316 µM, first compound 0.00949 µM.
The mark [11] stands for this setting: second compound 0.316 µM, first compound 0.03 µM.
The mark [12] stands for this setting: second compound 0.316 µM, first compound 0.0949 µM.
The mark [13] stands for this setting: second compound 0.316 µM, first compound 0.3 µM.
Setting [14] is: second compound 1 µM, first compound 0.00949 µM.
The mark [15] stands for this setting: second compound 1 µM, first compound 0.03 µM.
The mark [16] stands for this setting: second compound 1 µM, first compound 0.0949 µM.
[17] abbreviates: second compound 1 µM, first compound 0.3 µM.
Where [18] appears, read: second compound 3.16 µM, first compound 0.00949 µM.
The mark [19] stands for this setting: second compound 3.16 µM, first compound 0.03 µM.
Setting [20] is: second compound 3.16 µM, first compound 0.0949 µM.
[21] abbreviates: second compound 3.16 µM, first compound 0.3 µM.
Setting [22] is: second compound 10 µM, first compound 0.00949 µM.
Setting [23] is: second compound 10 µM, first compound 0.03 µM.
Where [24] appears, read: second compound 10 µM, first compound 0.0949 µM.
The mark [25] stands for this setting: second compound 10 µM, first compound 0.3 µM.
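Wherever viability, T/C is given: percent of DMSO vehicle-treated spheroid viability set as 100%.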

`CCN(c1cc(-c2ccc(CN3CCOCC3)cc2)cc(C(=O)NCc2c(C)cc(C)[nH]c2=O)c1C)C1CCOCC1` + Cc1ccccc1N=Nc1ccc(NC(=O)c2ccnn2C)c(C)c1: the pIC50 under setting [1] was under 5.52; the pIC50 under setting [2] is under 5.52; the pIC50 under setting [3] is under 5.52; the pIC50 under setting [4] was under 5.52; the pIC50 under setting [5] was under 5.52. In addition, the viability, T/C under setting [6] is 116%; the viability, T/C under setting [7] was 114%; the viability, T/C under setting [8] was 124%; the viability, T/C under setting [9] is 113%; the viability, T/C (second compound 0.1 µM, first compound 0.949 µM) was 80%; the viability, T/C (second compound 0.1 µM, first compound 3 µM) is 125%. Moreover, the viability, T/C reads like this: under setting [10], 131%; under setting [11], 126%; under setting [12], 135%; under setting [13], 112%; (second compound 0.316 µM, first compound 0.949 µM) 106%; (second compound 0.316 µM, first compound 3 µM) 91.2%. The viability, T/C was 119% under setting [14]; 134% under setting [15]; 131% under setting [16]; 106% under setting [17]; 87.3% (second compound 1 µM, first compound 0.949 µM); 87.8% (second compound 1 µM, first compound 3 µM). Further, the viability, T/C by setting is: under setting [18], 109%; under setting [19], 117%; under setting [20], 116%; under setting [21], 107%; (second compound 3.16 µM, first compound 0.949 µM) 130%; (second compound 3.16 µM, first compound 3 µM) 105%. In addition, the viability, T/C reads like this: under setting [22], 141%; under setting [23], 138%; under setting [24], 147%; under setting [25], 137%; (second compound 10 µM, first compound 0.949 µM) 128%; (second compound 10 µM, first compound 3 µM) 110%.

In the case of `NS(=O)(=O)OCC1CC(n2ccc3c(NC4CCc5ccccc54)ncnc32)CC1O` (stereo not drawn) + CC(CO)NC(=O)c1cc(-c2ccc(Cl)cc2)nn(-c2cnn(C)c2)c1=O, the pIC50 under setting [1] was 6.01; the pIC50 under setting [2] was 6.09; the pIC50 under setting [3] is 6.07; the pIC50 under setting [4] is 6.33; the pIC50 under setting [5] is 6.19. Besides, the viability, T/C is 114% (second compound 0.1 µM, first compound 0.0316 µM); 123% (second compound 0.1 µM, first compound 0.1 µM); 116% (second compound 0.1 µM, first compound 0.316 µM); 49% (second compound 0.1 µM, first compound 1 µM); 28.7% (second compound 0.1 µM, first compound 3.16 µM); 25.3% (second compound 0.1 µM, first compound 10 µM). Also, the viability, T/C (second compound 0.316 µM, first compound 0.0316 µM) was 132%; the viability, T/C (second compound 0.316 µM, first compound 0.1 µM) is 147%; the viability, T/C (second compound 0.316 µM, first compound 0.316 µM) was 89.4%; the viability, T/C (second compound 0.316 µM, first compound 1 µM) is 45.6%; the viability, T/C (second compound 0.316 µM, first compound 3.16 µM) was 26.6%; the viability, T/C (second compound 0.316 µM, first compound 10 µM) is 22.1%. The viability, T/C runs as follows: (second compound 1 µM, first compound 0.0316 µM) 152%; (second compound 1 µM, first compound 0.1 µM) 162%; (second compound 1 µM, first compound 0.316 µM) 72%; (second compound 1 µM, first compound 1 µM) 38.2%; (second compound 1 µM, first compound 3.16 µM) 32.9%; (second compound 1 µM, first compound 10 µM) 22.5%. Further, the viability, T/C was 125% (second compound 3.16 µM, first compound 0.0316 µM); 128% (second compound 3.16 µM, first compound 0.1 µM); 60.6% (second compound 3.16 µM, first compound 0.316 µM); 38.8% (second compound 3.16 µM, first compound 1 µM); 28.6% (second compound 3.16 µM, first compound 3.16 µM); 23.1% (second compound 3.16 µM, first compound 10 µM). The viability, T/C is 87.1% (second compound 10 µM, first compound 0.0316 µM); 79.8% (second compound 10 µM, first compound 0.1 µM); 59.1% (second compound 10 µM, first compound 0.316 µM); 44.7% (second compound 10 µM, first compound 1 µM); 29.6% (second compound 10 µM, first compound 3.16 µM); 24.6% (second compound 10 µM, first compound 10 µM).

On to `Nc1ncn(C2CC(O)C(CO)S2)c(=O)n1` (stereo not drawn) + CC(CO)NC(=O)c1cc(-c2ccc(Cl)cc2)nn(-c2cnn(C)c2)c1=O, for which the pIC50 by setting is: under setting [1], under 6.52; under setting [2], under 6.52; under setting [3], under 6.52; under setting [4], under 6.52; under setting [5], under 6.52. Moreover, the viability, T/C is, setting by setting: (second compound 0.1 µM, first compound 0.000949 µM) 115%; (second compound 0.1 µM, first compound 0.003 µM) 126%; under setting [6], 114%; under setting [7], 74.6%; under setting [8], 84.4%; under setting [9], 72.4%. Also, the viability, T/C (second compound 0.316 µM, first compound 0.000949 µM) is 118%; the viability, T/C (second compound 0.316 µM, first compound 0.003 µM) was 130%; the viability, T/C under setting [10] was 134%; the viability, T/C under setting [11] was 88.3%; the viability, T/C under setting [12] was 98.2%; the viability, T/C under setting [13] was 69.8%. Also, the viability, T/C (second compound 1 µM, first compound 0.000949 µM) is 137%; the viability, T/C (second compound 1 µM, first compound 0.003 µM) is 127%; the viability, T/C under setting [14] was 148%; the viability, T/C under setting [15] was 125%; the viability, T/C under setting [16] is 92.2%; the viability, T/C under setting [17] is 65.5%. Moreover, the viability, T/C is 87.3% (second compound 3.16 µM, first compound 0.000949 µM); 124% (second compound 3.16 µM, first compound 0.003 µM); 119% under setting [18]; 118% under setting [19]; 92.6% under setting [20]; 76.2% under setting [21]. The viability, T/C reads like this: (second compound 10 µM, first compound 0.000949 µM) 105%; (second compound 10 µM, first compound 0.003 µM) 106%; under setting [22], 136%; under setting [23], 107%; under setting [24], 105%; under setting [25], 83.4%.

As for `CC(CO)NC(=O)c1cc(-c2ccc(Cl)cc2)nn(-c2cnn(C)c2)c1=O` (stereo not drawn), the pIC50 (compound alone, run of 05/31/2022) was under 5.00.

For the molecule `Nc1ncn(C2CC(O)C(CO)S2)c(=O)n1` (stereo not drawn), the viability, T/C by setting is: (compound 0.000949 µM) 110% and 102% and 115%; (compound 0.003 µM) 104% and 111% and 121%; (compound 0.00949 µM) 105% and 93% and 90.2%; (compound 0.03 µM) 98% and 87.8% and 92.5%; (compound 0.0949 µM) 80.2% and 77.9% and 76.2%; (compound 0.3 µM) 81.4% and 64.2% and 70.1%. For the same molecule, the pIC50 (curve of compound) was under 6.52.

The term pIC50 denotes the negative decadic logarithm of the IC50, by convention in mol/L. A word on the viability, T/C: it is the result in the treated group divided by that in the control group, in per cent.

Values taken from PubChem BioAssay AID1919009 (Molecular Pharmacology Branch, DTP, NCI, 2023).
